Paper PMC12142043, “Cell-based high-content approach for SARS-CoV-2 neutralization identifies unique monoclonal antibodies and PI3K pathway inhibitors” (Frontiers in Cell and Developmental Biology, 2025)
Where a name gives a salt, the structure may show the parent alone. Read-outs that look alike come from different tables or passages of the source.

Tested on: SARS-CoV-2 (USA-WA1/2020) in Calu-3 cells
Format: cell-based
[1] = high dose (10 µM), Calu-3, 48 h
[2] = low dose (100 nM), Calu-3, 48 h

Compound | dsRNA signal, AU High [1] [AU] | dsRNA signal, AU Low [2] [AU] | dsRNA signal, AU High | dsRNA signal, AU Low
Cc1ccc(C(=O)Nc2ccc(CN3CCN(C)CC3)c(C(F)(F)F)c2)cc1C#Cc1cnc2[nH]ncc2c1 [GZD824] | 64275.0 | 33439.8 |  | 
O=c1c(O)c(-c2ccccc2)oc2cc(O)cc(O)c12 [Galangin;3,5,7-Trihydroxyflavone] | 16189.5 | 46015.9 |  | 
COc1cc2ncnc(Nc3ccc(F)c(Cl)c3)c2cc1OCCCN1CCOCC1.Cl [Gefitinib hydrochloride] |  |  | 0.0 | 28000.5
CC(C)=CCC[C@](C)(O[C@@H]1O[C@H](CO[C@@H]2O[C@H](CO)[C@@H](O)[C@H](O)[C@H]2O)[C@@H](O)[C@H](O)[C@H]1O)[C@H]1CC[C@]2(C)[C@@H]1[C@H](O)C[C@@H]1[C@@]3(C)CC[C@H](O[C@@H]4O[C@H](CO)[C@@H](O)[C@H](O)[C@H]4O[C@@H]4O[C@H](CO)[C@@H](O)[C@H](O)[C@H]4O)C(C)(C)[C@@H]3CC[C@]12C [Ginsenoside Rb1] | 7414.4 | 52585.8 |  | 
CC(C)=CCC[C@](C)(O[C@@H]1O[C@H](CO)[C@@H](O)[C@H](O)[C@H]1O)[C@H]1CC[C@]2(C)[C@@H]1[C@H](O)C[C@@H]1[C@@]3(C)CC[C@H](O)C(C)(C)[C@@H]3[C@@H](O[C@@H]3O[C@H](CO)[C@@H](O)[C@H](O)[C@H]3O[C@@H]3O[C@@H](C)[C@H](O)[C@@H](O)[C@H]3O)C[C@]12C [Ginsenoside Re] | 10054.1 | 65920.2 |  | 
CC(C)=CCC[C@](C)(O)[C@H]1CC[C@]2(C)[C@@H]1[C@H](O)C[C@@H]1[C@@]3(C)CC[C@H](O[C@@H]4O[C@H](CO)[C@@H](O)[C@H](O)[C@H]4O)C(C)(C)[C@@H]3CC[C@]12C [Ginsenoside Rh2] | 41827.1 | 30569.1 |  | 
COc1ccc2c(c1)c(C1=C(c3c[nH]c4ccccc34)C(=O)NC1=O)cn2CCCN(C)C [Go 6983] | 52923.0 | 26190.1 |  | 
CN1CCN(C2CCN(C(=O)Nc3cc(Oc4ccc(NC(=O)C5(C(=O)Nc6ccc(F)cc6)CC5)c(F)c4)ccn3)CC2)CC1 [Golvatinib (E7050)] | 36777.1 | 23267.5 |  | 
Cl.Cl.O=S(=O)(NCCNC/C=C/c1ccc(Br)cc1)c1cccc2cnccc12 [H 89 2HCl] | 7807.6 | 56279.7 |  | 
Cl.O=S(=O)(c1cccc2cnccc12)N1CCNCC1 [HA-100 (hydrochloride)] | 27295.9 | 14084.7 |  | 
CCOC(=O)c1cnc2ccc(-c3cncc(NS(=O)(=O)c4ccccc4)c3)cn12 [HS-173] | 345.7 | 31987.4 |  | 
Cc1nc(Nc2cnn(C3CCNCC3)c2)nc2c1N(C)C(=O)c1cc3ccccc3cc1N2C [HTH-01-015] | 4731.3 | 21129.9 |  | 
COc1ccc2c(c1)[nH]c1c(C)nccc12 [Harmine hydrochloride] | 0.0 | 53937.1 |  | 
COc1ccc2c(c1)[nH]c1c(C)nccc12 [Harmine] | 9958.7 | 24294.0 |  | 
Cl.O=c1[nH]ccc2c(S(=O)(=O)N3CCCNCC3)cccc12 [Hydroxyfasudil hydrochloride] | 2331.1 | 751.7 |  | 
COc1cc(OC)c(C=C2C(O)=Nc3ccccc32)c(OC)c1 [IC261] | 6564.9 | 46952.8 |  | 
O=C(Nc1cc(C(F)(F)F)cc(C(F)(F)F)c1)c1cc(Cl)ccc1O [IMD 0354] | 3341.9 | 20862.1 |  | 
CNC(=O)c1ccc(-c2cnc3ncc(Cc4ccc5ncccc5c4)n3n2)cc1F [INCB28060] | 59276.3 | 63091.3 |  | 
COc1cc(N2CCOCC2)ccc1NC(=O)c1csc(-c2cccnc2)n1 [IRAK inhibitor 6] | 19776.5 | 7334.0 |  | 
O=C(Nc1nc2ccccc2n1CCN1CCOCC1)c1cccc([N+](=O)[O-])c1 [IRAK-1-4 Inhibitor I] | 21347.7 | 22363.0 |  | 
C#Cc1cccc(Nc2ncnc3cc4c(cc23)OCCOCCOCCO4)c1 [Icotinib] | 11365.1 | 24561.1 |  | 
Nc1nc(Nc2ccc(S(N)(=O)=O)cc2)nn1C(=O)c1c(F)cccc1F [JNJ-7706621] | 0.0 | 4378.3 |  | 
Cn1cc(-c2ccc3nnc(C(F)(F)c4ccc5ncccc5c4)n3n2)cn1 [JNJ-38877605] | 9345.0 | 32468.4 |  | 
CN(C)C/C=C/C(=O)Nc1cccc(C(=O)Nc2ccc(Nc3nccc(-c4cccnc4)n3)cc2)c1 [JNK-IN-7] | 66910.1 | 45982.8 |  | 
COc1cc(-c2cc(-c3cccc(O)c3)cnc2N)cc(OC)c1OC [K02288] | 4456.5 | 7061.1 |  | 
COc1ccc(S(=O)(=O)Nc2ccccc2CN(C)C/C=C/c2ccc(Cl)cc2)cc1.Cl [KN-92 hydrochloride] | 0.0 | 14359.5 |  | 
